Test results reported in patent US20110112124A1, “FUNGICIDAL COMPOSITIONS” (SYNGENTA CROP PROTECTION, INC., priority 2008, published 2011).
Like-named read-outs stand apart in the source and are kept apart here.

How the values were obtained:
[1] = test system: Botryotinia fuckeliana (Botrytis cinerea); assay: Example B1: liquid culture test, gray mould; format: cell-based
[2] = test system: Pythium ultimum; assay: Example B2: liquid culture test, seedling damping off; format: cell-based
[3] = test system: Sclerotinia sclerotiorum; assay: Example B3: liquid culture test, cottony rot; format: cell-based
[4] = test system: Mycosphaerella arachidis (Cercospora arachidicola); assay: Example B4: liquid culture test, early leaf spot; format: cell-based
[5] = test system: Tapesia yallundae W-type (Pseudocercosporella herpotrichoides); assay: Example B5: liquid culture test, eyespot; format: cell-based
[6] = test system: Mycosphaerella graminicola (Septoria tritici); assay: Example B6: liquid culture test, Septoria blotch; format: cell-based
[7] = test system: Tapesia yallundae W-type (Pseudocercosporella herpotrichoides); assay: Example B7: liquid culture test, eyespot; format: cell-based
[8] = test system: Sclerotinia sclerotiorum; assay: Example B8: liquid culture test, cottony rot; format: cell-based
[9] = test system: Mycosphaerella graminicola (Septoria tritici); assay: Example B9: liquid culture test, Septoria blotch; format: cell-based
[10] = test system: Tapesia yallundae W-type (Pseudocercosporella herpotrichoides); assay: Example B10: liquid culture test, eyespot; format: cell-based
[11] = test system: Botryotinia fuckeliana (Botrytis cinerea); assay: Example B11: liquid culture test, gray mould; format: cell-based
[12] = test system: Fusarium culmorum; format: cell-based
[13] = test system: Mycosphaerella graminicola (Septoria tritici); assay: Example B13: liquid culture test, Septoria blotch; format: cell-based
[14] = test system: Tapesia yallundae W-type (Pseudocercosporella herpotrichoides); assay: Example B14: liquid culture test, eyespot; format: cell-based
[15] = test system: Thanatephorus cucumeris (Rhizoctonia solani); assay: Example B15: liquid culture test, foot rot, damping-off; format: cell-based
[16] = test system: Botryotinia fuckeliana (Botrytis cinerea); assay: Example B16: liquid culture test, gray mould; format: cell-based
[17] = test system: Mycosphaerella graminicola (Septoria tritici); assay: Example B17: liquid culture test, Septoria blotch; format: cell-based
[18] = test system: Plasmopara viticola; assay: Example B18: grape leaf disc preventative test
Description: Leaf disks or leaf segments of various plant species were cut from plants grown in the greenhouse. The cut leaf disks or segments were placed in multiwell plates (24-well format) onto water agar. The leaf disks were sprayed with a test solution before (preventative) or after (curative) inoculation. Compounds to be tested were prepared as DMSO solutions (max. 10 mg/ml) which were diluted to the appropriate concentration with 0.025% Tween20 just before spraying. The inoculated leaf disks or segments were incubated under defined conditions (temperature, relative humidity, light, etc.) according to the respective test system. A single evaluation of disease level was carried out 3-9 days after inoculation, depending on the pathosystem. Percent disease control relative to the untreated check leaf disks or segments was then calculated.
The leaf disks were inoculated with a spore suspension of the fungus 1 day after application. The inoculated leaf disks were incubated at 19° C. and 80% rh under a light regime of 12 h light/12 h darkness in a climate cabinet and the activity of a compound was assessed as percent disease control compared to untreated when an appropriate level of disease damage appears in untreated check leaf disks (6-8 days after application).

SMILES: COC(c1ccc(Cl)cc1Cl)C(C)NC(=O)c1cn(C)nc1C(F)F (racemic) [Comp. 1.001, 3-difluoromethyl-1-methyl-1H-pyrazole-4-carboxylic acid [2-(2,4-dichlorophenyl)-2-methoxy-1-methyl-ethyl]-amide]
- % action ([1]; 0.063 ppm): 20%
- % action ([1]; 0.125 ppm): 20%
- % action ([1]; 0.250 ppm): 50%
- % action ([1]; 0.500 ppm): 50%
- % action ([1]; 1.000 ppm): 70%
- % action ([2]; 2.500 ppm): 0%
- % action ([2]; 5.000 ppm): 0%
- % action ([2]; 10.000 ppm): 0%
- % action ([2]; 20.000 ppm): 0%
- % action ([3]; 0.313 ppm): 20%
- % action ([3]; 0.625 ppm): 50%
- % action ([3]; 1.250 ppm): 70%
- % action ([4]; 0.039 ppm): 0%
- % action ([4]; 0.078 ppm): 20%
- % action ([5]; 0.156 ppm): 0%
- % action ([5]; 0.313 ppm): 20%
- % action ([5]; 0.625 ppm): 50%
- % action ([5]; 1.250 ppm): 70%
- % action ([6]; 0.156 ppm): 70%
- % action ([6]; 0.313 ppm): 90%
- % action ([7]; 0.039 ppm): 0%
- % action ([7]; 0.078 ppm): 0%
- % action ([7]; 0.156 ppm): 20%
- % action ([7]; 0.313 ppm): 20%
- % action ([7]; 0.625 ppm): 50%
- % action ([7]; 1.250 ppm): 70%
- % action ([8]; 0.078 ppm): 0%
- % action ([8]; 0.156 ppm): 0%
- % action ([8]; 0.313 ppm): 20%
- % action ([8]; 0.625 ppm): 50%
- % action ([8]; 1.250 ppm): 70%
- % action ([9]; 0.078 ppm): 20%
- % action ([9]; 0.156 ppm): 70%
- % action ([10]; 0.078 ppm): 0%
- % action ([10]; 0.156 ppm): 0%
- % action ([10]; 0.313 ppm): 20%
- % action ([10]; 0.625 ppm): 20%
- % action ([10]; 1.250 ppm): 50%
- % action ([11]; 0.031 ppm): 0%
- % action ([11]; 0.063 ppm): 0%
- % action ([11]; 0.125 ppm): 20%
- % action ([11]; 0.250 ppm): 20%
- % action ([11]; 0.500 ppm): 50%
- % action ([12]; 0.063 ppm): 0%
- % action ([12]; 0.125 ppm): 0%
- % action ([12]; 0.250 ppm): 0%
- % action ([12]; 0.500 ppm): 0%
- % action ([12]; 1.000 ppm): 0%
- % action ([12]; 2.000 ppm): 20%
- % action ([13]; 0.078 ppm): 20%
- % action ([13]; 0.156 ppm): 70%
- % action ([14]; 0.156 ppm): 20%
- % action ([14]; 0.313 ppm): 20%
- % action ([14]; 0.625 ppm): 50%
- % action ([14]; 1.250 ppm): 70%
- % action ([15]; 0.250 ppm): 0%
- % action ([15]; 0.500 ppm): 0%
- % action ([15]; 1.000 ppm): 0%
- % action ([15]; 2.000 ppm): 0%
- % action ([16]; 0.016 ppm): 0%
- % action ([16]; 0.031 ppm): 0%
- % action ([16]; 0.063 ppm): 20%
- % action ([16]; 0.125 ppm): 20%
- % action ([17]; 0.016 ppm): 0%
- % action ([17]; 0.031 ppm): 0%
- % action ([17]; 0.063 ppm): 20%
- % action ([17]; 0.125 ppm): 50%
- % action ([18]; 0.625 ppm): 0%
- % action ([18]; 1.250 ppm): 0%
- % action ([18]; 2.500 ppm): 0%
- % action ([18]; 5.000 ppm): 7%
- % action ([18]; 10.000 ppm): 0%

SMILES: CO/C=C(/C(=O)OC)c1ccccc1Oc1cc(Oc2ccccc2C#N)ncn1 [Azoxystrobin, azoxystrobin]
- % action ([1]; 0.063 ppm): 0%
- % action ([1]; 0.125 ppm): 20%
- % action ([1]; 0.250 ppm): 20%
- % action ([1]; 0.500 ppm): 50%
- % action ([1]; 1.000 ppm): 50%
- % action ([1]; 2.000 ppm): 50%
- % action ([2]; 10.000 ppm): 50%
- % action ([2]; 20.000 ppm): 70%
- % action ([3]; 0.625 ppm): 0%
- % action ([3]; 1.250 ppm): 20%
- % action ([3]; 2.500 ppm): 20%
- % action ([3]; 5.000 ppm): 50%
- % action ([4]; 0.039 ppm): 20%
- % action ([4]; 0.078 ppm): 50%
- % action ([4]; 0.156 ppm): 70%
- % action ([5]; 0.078 ppm): 0%
- % action ([5]; 0.156 ppm): 0%
- % action ([5]; 0.313 ppm): 20%
- % action ([5]; 0.625 ppm): 20%
- % action ([5]; 1.250 ppm): 20%
- % action ([5]; 2.500 ppm): 20%
- % action ([5]; 5.000 ppm): 20%

SMILES: N#Cc1c(Cl)c(Cl)c(Cl)c(C#N)c1Cl [Chlorothalonil, chlorothalonil, reference compound]
- % action ([8]; 0.156 ppm): 0%
- % action ([8]; 0.313 ppm): 20%
- % action ([8]; 0.625 ppm): 90%
- % action ([9]; 0.078 ppm): 20%
- % action ([9]; 0.156 ppm): 50%
- % action ([10]; 0.156 ppm): 20%
- % action ([10]; 0.313 ppm): 20%

SMILES: Cc1cc(C2CC2)nc(Nc2ccccc2)n1 [Cyprodinil, cyprodinil]
- % action ([6]; 0.156 ppm): 0%
- % action ([6]; 0.313 ppm): 0%
- % action ([6]; 0.625 ppm): 0%
- % action ([6]; 1.250 ppm): 0%
- % action ([7]; 0.039 ppm): 0%
- % action ([7]; 0.078 ppm): 0%
- % action ([7]; 0.156 ppm): 0%
- % action ([7]; 0.313 ppm): 0%
- % action ([7]; 0.625 ppm): 0%
- % action ([7]; 1.250 ppm): 0%
- % action ([7]; 2.500 ppm): 0%
- % action ([7]; 5.000 ppm): 0%

SMILES: N#Cc1c[nH]cc1-c1cccc2c1OC(F)(F)O2 [Fludioxonil, fludioxonil, reference compound]
- % action ([11]; 0.063 ppm): 20%
- % action ([11]; 0.125 ppm): 70%
- % action ([12]; 0.250 ppm): 20%
- % action ([12]; 0.500 ppm): 70%

SMILES: C#CCOc1ccc(CCNC(=O)C(OCC#C)c2ccc(Cl)cc2)cc1OC (stereo not drawn) [Mandipropamid, mandipropamid, reference compound]
- % action ([18]; 0.625 ppm): 30%
- % action ([18]; 1.250 ppm): 37%
- % action ([18]; 2.500 ppm): 67%

SMILES: CCCC(Cn1cncn1)c1ccc(Cl)cc1Cl (stereo not drawn) [Penconazole, penconazole]
- % action ([13]; 0.078 ppm): 0%
- % action ([13]; 0.156 ppm): 0%
- % action ([13]; 0.313 ppm): 0%
- % action ([13]; 0.625 ppm): 20%

SMILES: CC(C)(C)C(O)(CCc1ccc(Cl)cc1)Cn1cncn1 (stereo not drawn) [Tebuconazol, tebuconazole, reference compound]
- % action ([14]; 0.625 ppm): 20%

SMILES: CC(C)C1C2CCC1c1c(NC(=O)c3cn(C)nc3C(F)F)cccc12 (stereo not drawn) [isopyrazam, reference compound]
- % action ([15]; 0.125 ppm): 50%
- % action ([15]; 0.250 ppm): 70%
- % action ([15]; 0.500 ppm): 70%
- % action ([15]; 1.000 ppm): 70%
- % action ([15]; 2.000 ppm): 70%
- % action ([16]; 0.031 ppm): 20%
- % action ([16]; 0.063 ppm): 20%
- % action ([17]; 0.031 ppm): 0%
- % action ([17]; 0.063 ppm): 20%
- % action ([17]; 0.125 ppm): 70%
